Reference: patent US11072591B2, “Tetrazole compounds and their use in the treatment of tuberculosis” (GLAXOSMITHKLINE INTELLECTUAL PROPERTY DEVELOPMENT LIMITED, priority 2017, dated 2021)
≈ marks a conversion by molar mass, not a printed value.

Test system: M. tuberculosis H37Rv
Assay: Mycobacterium tuberculosis H37Rv Inhibition Assay (Whole Cell Assay), MIC
Type: cell-based
Details: 144 h, M. tuberculosis H37Rv, Middlebrook 7H9 + ADC, 37° C. six days, resazurin readout, read-out: MIC_H37Rv

Which MIC does the source give for `O=S(=O)(NC(CO)CO)c1ccc(-c2nnn(Cc3ccc(F)cc3)n2)cc1` [Example 15] here?
The MIC was 5 to 10 µM.

For `COc1ccc(Cn2nnc(-c3ccc(S(=O)(=O)NCCO)cc3)n2)cc1` [Example 6, N-(2-hydroxyethyl)-4-(2-(4-methoxybenzyl)-2H-tetrazol-5-yl)benzenesulfonamide], which MIC is on record?
The MIC was < 0.1 µM.

With `O=S(=O)(NCCO)c1ccc(-c2nnn(CC3CCC(F)(F)CC3)n2)cc1` [Example 11] as the compound, how does the MIC read?
The MIC was < 0.1 µM.

How did the MIC turn out when `Cc1cccc(Cn2nnc(-c3ccc(S(=O)(=O)NCCO)cc3)n2)n1` [Example 22] was run?
Its MIC is 10 to 25 µM.

`COc1cc(-c2nnn(Cc3ccc(C#N)cc3)n2)ccc1S(=O)(=O)NCCO` [Example 49, 4-(2-(4-cyanobenzyl)-2H-tetrazol-5-yl)-N-(2-hydroxyethyl)-2-methoxybenzenesulfonamide] was tested. Which MIC did it give?
Its MIC is < 0.1 µM.

Which MIC does the source give for `O=S(=O)(NCCO)c1ccc(-c2nnn(CC3CCCOC3)n2)cc1` (stereo not shown) [Example 104, N-(2-hydroxyethyl)-4-(2-((tetrahydro-2H-pyran-3-yl)methyl)-2H-tetrazol-5-yl)benzenesulfonamide] here?
The MIC was 5 to 10 µM.

`CNS(=O)(=O)c1ccc(-c2nnn(Cc3ccncc3)n2)cc1` [Example 4, N-methyl-4-(2-(pyridin-4-ylmethyl)-2H-tetrazol-5-yl)benzenesulfonamide] was tested. Which MIC did it give?
The MIC was 1 to 5 µM.

With `C[C@H](O)CNS(=O)(=O)c1ccc(-c2nnn(Cc3ccc(F)cc3)n2)cc1` [Example 14] as the compound, how does the MIC read?
The MIC was 1 to 5 µM.

Which MIC does the source give for `CNS(=O)(=O)c1ccc(-c2nnn(Cc3ccc(C#N)cc3)n2)cc1` [Example 108, 4-(2-(4-cyanobenzyl)-2H-tetrazol-5-yl)-N-methylbenzenesulfonamide] here?
Its MIC is 1 to 5 µM.

`O=S(=O)(NCCO)c1ccc(-c2nnn(Cc3ccc(Cl)cn3)n2)cc1` [Example 18, 4-(2-((5-chloropyridin-2-yl)methyl)-2H-tetrazol-5-yl)-N-(2-hydroxyethyl)benzenesulfonamide] was tested. Which MIC did it give?
The MIC was < 0.1 µM.

For `NC(=O)CNS(=O)(=O)c1ccc(-c2nnn(Cc3ccncc3)n2)cc1` [Example 46, 2-(4-(2-(pyridin-4-ylmethyl)-2H-tetrazol-5-yl)phenylsulfonamido)acetamide], which MIC is on record?
Its MIC is < 0.1 µM.

Which MIC does the source give for `C[C@@H](O)CNS(=O)(=O)c1ccc(-c2nnn(Cc3ccncc3)n2)cc1` [Example 12] here?
The MIC was < 0.1 µM.

With `Cc1cc(Cn2nnc(-c3ccc(S(=O)(=O)NCC(N)=O)cc3)n2)ccn1` [Example 42] as the compound, how does the MIC read?
Its MIC is < 0.1 µM.

For `COc1ccc(Cn2nnc(-c3ccc(S(=O)(=O)NCCO)c(OC)c3)n2)nc1` [Example 109, N-(2-hydroxyethyl)-2-methoxy-4-(2-((5-methoxypyridin-2-yl)methyl)-2H-tetrazol-5-yl)benzenesulfonamide], which MIC is on record?
The MIC was 1 to 5 µM.

How did the MIC turn out when `N#CCNS(=O)(=O)c1ccc(-c2cn(Cc3ccncc3)nn2)cc1` [Example 60] was run?
Its MIC is < 0.1 µM.

For `NC(=O)CNS(=O)(=O)c1ccc(-c2nnn(CC3CCCCO3)n2)cc1` (stereo not shown) [Example 96, 2-((4-(2-((tetrahydro-2H-pyran-2-yl)methyl)-2H-tetrazol-5-yl)phenyl)sulfonamido)acetamide], which MIC is on record?
Its MIC is < 0.1 µM.

How did the MIC turn out when `COC(=O)CNS(=O)(=O)c1ccc(-c2nnn(Cc3ccc(F)cc3)n2)cc1` [Example 43] was run?
The MIC was 1 to 5 µM.

`Cc1ccc(Cn2nnc(-c3ccc(S(=O)(=O)NCCO)cc3)n2)cn1` [Example 101, N-(2-hydroxyethyl)-4-(2-((6-methylpyridin-3-yl)methyl)-2H-tetrazol-5-yl)benzenesulfonamide] was tested. Which MIC did it give?
The MIC was < 0.1 µM.

Which MIC does the source give for `COc1ccc(Cn2cc(-c3ccc(S(=O)(=O)NCCO)cc3)nn2)cc1` [Example 63] here?
The MIC was < 0.1 µM.

How did the MIC turn out when `O=S(=O)(NCCO)c1ccc(-c2nnn(CC3CCOCC3)n2)cc1F` [Example 78, 2-fluoro-N-(2-hydroxyethyl)-4-(2-((tetrahydro-2H-pyran-4-yl)methyl)-2H-tetrazol-5-yl)benzenesulfonamide] was run?
Its MIC is < 0.1 µM.

For `CNS(=O)(=O)c1ccc(-c2nnn(Cc3ccncc3)n2)cc1OC` [Example 51, 2-methoxy-N-methyl-4-(2-(pyridin-4-ylmethyl)-2H-tetrazol-5-yl)benzenesulfonamide], which MIC is on record?
The MIC was 1 to 5 µM.

With `C[C@@H](c1ccc(F)cn1)n1nnc(-c2ccc(S(=O)(=O)NCCO)cc2)n1` [Example 111] as the compound, how does the MIC read?
Its MIC is 1 to 5 µM.

With `N#Cc1ccc(Cn2nnc(-c3ccc(S(=O)(=O)NCCO)cc3)n2)nc1` [Example 20] as the compound, how does the MIC read?
Its MIC is < 0.1 µM.

For `Cc1ccc(Cn2nnc(-c3ccc(S(=O)(=O)NCC(N)=O)cc3)n2)nc1` [Example 40], which MIC is on record?
The MIC was < 0.1 µM.

For `N#CCNS(=O)(=O)c1ccc(-c2nnn(Cc3cnccn3)n2)cc1` [Example 90, N-(cyanomethyl)-4-(2-(pyrazin-2-ylmethyl)-2H-tetrazol-5-yl)benzenesulfonamide], which MIC is on record?
Its MIC is < 0.1 µM.

For `NC(=O)CNS(=O)(=O)c1ccc(-c2nnn(CC3CCC(F)(F)CC3)n2)cc1` [Example 39], which MIC is on record?
Its MIC is < 0.1 µM.

`COc1cc(-c2nnn(Cc3ccncc3)n2)ccc1S(=O)(=O)NCCO` [Example 48, N-(2-hydroxyethyl)-2-methoxy-4-(2-(pyridin-4-ylmethyl)-2H-tetrazol-5-yl)benzenesulfonamide] was tested. Which MIC did it give?
Its MIC is 1 to 5 µM.

With `Cc1cc(-c2nnn(Cc3ccc(F)cn3)n2)ccc1S(=O)(=O)NCCO` [Example 71, 4-(2-((5-fluoropyridin-2-yl)methyl)-2H-tetrazol-5-yl)-N-(2-hydroxyethyl)-2-methyl Benzenesulfonamide] as the compound, how does the MIC read?
Its MIC is < 0.1 µM.

With `C[C@@H](O)CNS(=O)(=O)c1ccc(-c2cn(Cc3ccc(F)cc3)nn2)cc1` [Example 70, (R)-4-(1-(4-fluorobenzyl)-1H-1,2,3-triazol-4-yl)-N-(2-hydroxypropyl) benzenesulfonamide] as the compound, how does the MIC read?
Its MIC is < 0.1 µM.

With `O=S(=O)(NCCO)c1ccc(-c2nnn(Cc3ccc(OC(F)(F)F)cc3)n2)cc1` [Example 97] as the compound, how does the MIC read?
Its MIC is 1 to 5 µM.

How did the MIC turn out when `Cc1nccc(Cn2nnc(-c3ccc(S(=O)(=O)NCCO)cc3)n2)n1` [Example 23] was run?
The MIC was 5 to 10 µM.

For `COc1ccc(Cn2nnc(-c3ccc(S(=O)(=O)NCC#N)cc3)n2)cn1` [Example 93, N-(cyanomethyl)-4-(2-((6-methoxypyridin-3-yl)methyl)-2H-tetrazol-5-yl)benzenesulfonamide], which MIC is on record?
The MIC was < 0.1 µM.

How did the MIC turn out when `Cc1cc(S(=O)(=O)NCCO)c(F)cc1-c1nnn(Cc2ccc(F)cn2)n1` [Example 110, 2-fluoro-4-(2-((5-fluoropyridin-2-yl)methyl)-2H-tetrazol-5-yl)-N-(2-hydroxyethyl)-5-methylbenzenesulfonamide] was run?
The MIC was < 0.1 µM.

How did the MIC turn out when `N#CCNS(=O)(=O)c1ccc(-c2cn(Cc3ccc(F)cn3)nn2)cc1` [Example 61] was run?
The MIC was < 0.1 µM.

`Cc1ccc(Cn2nnc(-c3ccc(S(=O)(=O)NCCO)cc3)n2)nc1` [Example 32] was tested. Which MIC did it give?
Its MIC is 1 to 5 µM.

For `O=S(=O)(NCCO)c1ccc(-c2nnn(Cc3ccc(C(F)F)cc3)n2)cc1` [Example 10], which MIC is on record?
The MIC was < 0.1 µM.

For `COc1ccc(Cn2nnc(-c3ccc(S(=O)(=O)NCCO)cc3)n2)nc1` [Example 31], which MIC is on record?
Its MIC is 1 to 5 µM.

How did the MIC turn out when `COc1cnc(Cn2nnc(-c3ccc(S(=O)(=O)NCC#N)cc3)n2)cn1` [Example 92, N-(cyanomethyl)-4-(2-((5-methoxypyrazin-2-yl)methyl)-2H-tetrazol-5-yl)benzenesulfonamide] was run?
The MIC was 1 to 5 µM.

How did the MIC turn out when `COc1ccc(Cn2nnc(-c3ccc(S(=O)(=O)NC[C@@H](C)O)cc3)n2)cc1` [Example 28] was run?
Its MIC is 1 to 5 µM.

Which MIC does the source give for `COc1cc(-c2nnn(Cc3ccncc3)n2)ccc1S(=O)(=O)NCC(N)=O` [Example 55] here?
Its MIC is < 0.1 µM.

`C[C@@H](O)CNS(=O)(=O)c1ccc(-c2nnn(CC3CCC(F)(F)CC3)n2)cc1` [Example 13] was tested. Which MIC did it give?
The MIC was 10 to 25 µM.

How did the MIC turn out when `Cc1ccc(Cn2cc(-c3ccc(S(=O)(=O)NCCO)cc3)nn2)nc1` [Example 67] was run?
Its MIC is 10 to 25 µM.

How did the MIC turn out when `O=S(=O)(NCCO)c1ccc(-c2nnn(Cc3ccnnc3)n2)cc1` [Example 106, N-(2-hydroxyethyl)-4-(2-(pyridazin-4-ylmethyl)-2H-tetrazol-5-yl)benzenesulfonamide] was run?
Its MIC is < 0.1 µM.

Which MIC does the source give for `N#CCNS(=O)(=O)c1ccc(-c2nnn(Cc3ccncc3)n2)cc1` [Example 56] here?
Its MIC is < 0.1 µM.

For `CCc1ccc(Cn2nnc(-c3ccc(S(=O)(=O)NCCO)cc3)n2)cc1` [Example 19], which MIC is on record?
Its MIC is 1 to 5 µM.

For `O=S(=O)(NCCO)c1ccc(-c2nnn(Cc3ccc(F)cn3)n2)cc1` [Example 29, 4-(2-((5-fluoropyridin-2-yl)methyl)-2H-tetrazol-5-yl)-N-(2-hydroxyethyl)benzenesulfonamide], which MIC is on record?
Its MIC is < 0.1 µM.

How did the MIC turn out when `N#Cc1ccc(Cn2cc(-c3ccc(S(=O)(=O)NCCO)cc3)nn2)cc1` [Example 66] was run?
Its MIC is < 0.1 µM.

Which MIC does the source give for `O=S(=O)(NCCO)c1ccc(-c2nnn(Cc3ccc(F)cn3)n2)cc1F` [Example 75, 2-fluoro-4-(2-((5-fluoropyridin-2-yl)methyl)-2H-tetrazol-5-yl)-N-(2-hydroxyethyl) benzenesulfonamide] here?
Its MIC is < 0.1 µM.

`Cc1ccc(Cn2nnc(-c3ccc(S(=O)(=O)NC[C@@H](C)O)cc3)n2)nc1` [Example 27] was tested. Which MIC did it give?
The MIC was 10 to 25 µM.

With `O=S(=O)(NCCO)c1ccc(-c2nnn(CC3CCCCO3)n2)cc1` (racemic) [Example 7, N-(2-hydroxyethyl)-4-(2-((tetrahydro-2H-pyran-2-yl)methyl)-2H-tetrazol-5-yl)benzenesulfonamide] as the compound, how does the MIC read?
Its MIC is < 0.1 µM.

Which MIC does the source give for `O=S(=O)(NC(CO)CO)c1ccc(-c2nnn(Cc3ccncc3)n2)cc1` [Example 16] here?
The MIC was 5 to 10 µM.

Which MIC does the source give for `COc1ccc(Cn2nnc(-c3ccc(S(=O)(=O)NC[C@@H](C)O)cc3)n2)nc1` [Example 26] here?
The MIC was 10 to 25 µM.

`CNS(=O)(=O)c1ccc(-c2nnn(Cc3ccc(F)cc3)n2)cc1` [Example 3, 4-(2-(4-fluorobenzyl)-2H-tetrazol-5-yl)-N-methylbenzenesulfonamide] was tested. Which MIC did it give?
Its MIC is 1 to 5 µM.

Same assay, conditions: M. tuberculosis H37Rv whole cell assay, value from repeated testing of the compound, read-out: MIC

Which MIC does the source give for `O=S(=O)(NCCO)c1c(F)cc(-c2nnn(Cc3ccc(F)cn3)n2)cc1F` [Example 87, 2,6-difluoro-4-(2-((5-fluoropyridin-2-yl)methyl)-2H-tetrazol-5-yl)-N-(2-hydroxyethyl)benzenesulfonamide] here?
Its MIC is ≤ 0.04 µM.

How did the MIC turn out when `C[C@@H](c1ccc(F)cn1)n1nnc(-c2ccc(S(=O)(=O)NCCO)cc2)n1` [Example 111 (S-isomer), (S)-4-(2-(1-(5-fluoropyridin-2-yl)ethyl)-2H-tetrazol-5-yl)-N-(2-hydroxyethyl)benzenesulfonamide] was run?
The MIC was 0.6 to 1.88 µM (≈ 0.235 to 0.736 µg/mL).

With `COc1cc(-c2nnn(Cc3ccc(F)cc3)n2)ccc1S(=O)(=O)NCC(N)=O` [Example 53, 2-(4-(2-(4-fluorobenzyl)-2H-tetrazol-5-yl)-2-methoxyphenylsulfonamido)acetamide] as the compound, how does the MIC read?
Its MIC is 0.04 µM (≈ 0.0168 µg/mL).

For `O=S(=O)(NCCO)c1ccc(-c2nnn(Cc3ccc(F)cn3)n2)cc1` [Example 29, 4-(2-((5-fluoropyridin-2-yl)methyl)-2H-tetrazol-5-yl)-N-(2-hydroxyethyl)benzenesulfonamide], which MIC is on record?
The MIC was 0.07 to 0.16 µM (≈ 0.0265 to 0.0605 µg/mL).

How did the MIC turn out when `O=S(=O)(NCCO)c1ccc(-c2nnn(Cc3ccc(F)cn3)n2)cc1F` [Example 75, 2-fluoro-4-(2-((5-fluoropyridin-2-yl)methyl)-2H-tetrazol-5-yl)-N-(2-hydroxyethyl) benzenesulfonamide] was run?
Its MIC is 0.16 µM (≈ 0.0634 µg/mL).
